{
  "source": "patent US20120214830A1",
  "about": "“BIOLOGICAL MARKERS PREDICTIVE OF ANTI-CANCER RESPONSE TO INSULIN-LIKE GROWTH FACTOR-1 RECEPTOR KINASE INHIBITORS IN HEPATOCELLULAR CARCINOMA” (OSI Pharmaceuticals, LLC, priority 2011, published 2012)",
  "key": {"Hep 3B": {"tested_on": "Hep 3B", "assay": "Cell Titer-Glo proliferation assay, 72 h", "assay_type": "cell-based", "details": "Homo sapiens; Hep3B cells, erlotinib alone, determined beforehand; read-out: concentration to inhibit about 50% proliferation", "experimental": "(§1) Two sensitive epithelial cell lines Hep3B (A), JHH-7 (B), one insensitive epithelial cell line JHH-1(C) or one insensitive mesenchymal-like cell line HLF (D) were treated serial dilution of OSI-906 in the presence of Erlotinib for 72 hours, and sensitivity to treatment was measured by proliferation assays.\n(§2) Cell lines: Twenty-one HCC cell lines were purchased from either ATCC (HepG2, Hep3B, PLC/PRF/5, SK-Hepl, SNU-182, SNU-387, SNU-398, SNU-423, SNU-449, SNU-475) or Health Science Research Resources Bank (Japan) (HUH-1, HUH-6, HUH-7, HLE, HLF, JHH-1, JHH-2, JHH-4, JHH-5, JHH-6, JHH-7). All the cell lines were maintained in media as described by the vendors. For growth inhibition assays, cells were plated and allowed to proliferate for 24 hours. After 24 hours, cells had reached approximately 15% confluency, at which time serial dilutions of OSI-906 were added and the cells grown for a further 72 hours. Cell viability was assayed using the Cell Titer-Glo reagent (Promega Corp., Madison, Wis.).\n(§3) Proliferation Assay. Proliferation was assayed using Cell Titer Glo assays (Promega) and was determined 72 hours following dosing with OSI-906. The basis of the assay is a luminescent quantitation of ATP present in a cell culture plate well. In essence, the greater the number of viable cells in the well, the greater the level of ATP present. The assay utilizes a substrate that binds ATP to produce a luminescent signal, which can be read on a luminometer. Unless otherwise noted, the manufacturer's instructions were followed exactly. Briefly, on Day 1, cells were plated in 120 μl of 10% serum-containing growth media at a density of 4000 cells/well in a white polystyrene 96 well assay plate. On day 2, cells were treated with 15 μl of 10× concentration of the IGF-1R inhibitor (e.g. OSI-906) or DMSO alone for a final well volume of 150 μl. After 72 h incubation with the inhibitor, the cells were assayed. Results were calculated as a fraction of the DMSO controlled cells."}, "JHH-1": {"tested_on": "JHH-1", "assay": "Cell Titer-Glo proliferation assay, 72 h", "assay_type": "cell-based", "details": "Homo sapiens, JHH1; JHH-1 cells, erlotinib alone, determined beforehand; read-out: concentration to inhibit about 50% proliferation", "experimental": "as §1, §2, §3"}, "[1]": {"tested_on": "ErbB3 in JHH5, HepG2, and HUH1 HCC cells", "assay": "ErbB3 protein expression after TGFβ treatment", "assay_type": "cell-based, human", "details": "data not shown", "experimental": "Preparation of Protein Lysates and Western Blotting: Cells were rinsed with PBS and lysed in RIPA buffer (Sigma #R0278) containing protease and phosphatase inhibitor cocktails (Sigma #P2850, P8340, P5726). Cell lysates were cleared by centrifugation and subjected to western blotting. Antibodies included: E-cadherin (Santa Cruz #sc21791), ErbB3 (Santa Cruz #sc285), vimentin (BD Pharmingen #550513), Zebl (Santa Cruz #sc25388).\n(§4) TGFβ treatment: Cells were grown in medium supplemented with 10 ng/ml TGFβ (EMD Biosciences #616450) for 10 days with replating every 3-4 days. The cells were then lysed for either RT-PCR or CELLTITER-GLO® proliferation assays (Promega, Madison, Wis.)."}, "[2]": {"tested_on": "AFP expression in HUH-1, JHH-5 and HepG2 cells", "assay": "AFP expression by RT-PCR after TGFβ treatment", "assay_type": "cell-based, human", "details": "10 ng/ml TGFβ for 10 days, HUH-1, JHH-5, HepG2", "experimental": "FIG. 11: TGFβ decreases AFP expression and cell sensitivity to OSI-906. HUH-1, JHH-5 and HepG2 cells were treated with TGFβ and cells were either treated with OSI-906 for proliferation assays (A) or lysed to measure AFP expression by RT-PCR (B).\nTaqman Assays: Total RNA was isolated with RNeasy kit (Qiagen) and treated with RNase-free DNase. Reverese transcription was performed with SuperScript III First-Strand Synthesis system (Invitrogen, Carlsbad, Calif.). The Gene Expression Assays were obtained from Applied Biosystems, Foster City, Calif. Quantitation of relative gene expression was conducted as described by the manufacturer using 50 ng of template. In order to determine relative expression across cell lines, amplification of AFP gene was compared to amplification of the gene for GAPDH as an internal standard.\nas §4"}},
  "note": "pIC50: −log10 of the molar value.",
  "data": [
    {"molecule": "C#Cc1cccc(Nc2ncnc3cc(OCCOC)c(OCCOC)cc23)c1", "note": "[Erlotinib, [6,7-bis(2-methoxyethoxy)-4-quinazolin-4-yl]-(3-ethynylphenyl) amine, reference compound]", "values": [
      {"measurement": "pIC50", "setting": "Hep 3B", "value": 5.48},
      {"measurement": "pIC50", "setting": "JHH-1", "value": 6.92}
    ]},
    {"molecule": "TGFβ", "values": [
      {"measurement": "expression of the epithelial biomarker protein ErbB3 after TGFβ treatment", "setting": "[1]", "value": "decreased"},
      {"measurement": "AFP expression after TGFβ treatment", "setting": "[2]", "value": "decreased"}
    ]}
  ]
}
